Patent publication US10681909B2, “Herbicidal triazoles” (FMC Corporation, priority 2014, dated 2020)

Columns and labels:
panicum, fall [1] = assay: Test E preemergence; type: in vivo, Panicum dichotomiflorum; settings: scale 0 to 100
Source text: (§1) Seeds of plant species selected from corn (Zea mays), soybean (Glycine max), lambsquarters (Chenopodium album), poinsettia, wild (wild poinsettia, Euphorbia heterophylla), pigweed, palmer (palmer pigweed, Amaranthus palmeri), waterhemp (common waterhemp, Amaranthus rudis), surinam grass (Brachiaria decumbens), crabgrass, large (large crabgrass, Digitaria sanguinalis), crabgrass, Brazilian (Brazilian crabgrass, Digitaria horizontalis), panicum, fall (fall panicum, Panicum dichotomiflorum), foxtail, giant (giant foxtail, Setaria faberii), foxtail, green (green foxtail, Setaria viridis), goosegrass (Eleusine indica), johnsongrass (Sorghum halepense), ragweed (common ragweed, Ambrosia elatior), barnyardgrass (Echinochloa crus-galli), sandbur (southern sandbur, Cenchrus echinatus), arrowleaf sida (Sida rhombifolia), ryegrass, Italian (Italian ryegrass, Lolium multiflorum), dayflower, VA (Virginia dayflower, Commelina virginica), field bindweed (Convolvulus arvensis), cocklebur (common cocklebur, Xanthium strumarium), morningglory (Ipomoea coccinea), nightshade (eastern black nightshade, Solanum ptycanthum), kochia (Kochia scoparia), nutsedge, yellow (yellow nutsedge, Cyperus esculentus), smartweed (ladysthumb smartweed, Polygonum persicaria), velvetleaf (Abutilon theophrasti), horseweed (Conyza canadensis), and beggarticks (hairy beggarticks, Bidens pilosa), were planted into a silt loam soil and treated preemergence with test chemicals formulated in a non-phytotoxic solvent mixture which included a surfactant.
(§2) At the same time, plants from these crop and weed species and also waterhemp_RES1, (ALS & Triazine resistant common waterhemp, Amaranthus rudis), and waterhemp_RES2, (ALS & HPPD resistant common waterhemp, Amaranthus rudis) were planted in pots containing Sunshine Redi-Earth® planting medium comprising spaghnum peat moss, vermiculite, starter nutrients and dolomitic limestone were treated with postemergence applications of test chemicals formulated in the same manner. Plants ranged in height from 2 to 18 cm for postemergence treatments (1- to 4-leaf stage). Treated plants and controls were maintained in a greenhouse for 14 to 21 d, after which time all species were compared to controls and visually evaluated. Plant response ratings, summarized in Table E, are based on a scale of 0 to 100 where 0 is no effect and 100 is complete control. A dash (-) response means no test result.

waterhemp = assay: Test E preemergence; type: in vivo, Amaranthus rudis; settings: scale 0 to 100
Source text: as §1, §2

johnsongrass = assay: Test E preemergence; type: in vivo, Sorghum halepense; settings: scale 0 to 100
Source text: as §1, §2

nutsedge, yellow = assay: Test E preemergence; type: in vivo, Cyperus esculentus; settings: scale 0 to 100
Source text: as §1, §2

crabgrass, large = assay: Test E preemergence; type: in vivo, Digitaria sanguinalis; settings: scale 0 to 100
Source text: as §1, §2

morningglory = assay: Test E preemergence; type: in vivo, Ipomoea coccinea; settings: scale 0 to 100
Source text: as §1, §2

arrowleaf sida [2] = assay: Test E preemergence; type: in vivo, Sida rhombifolia; settings: scale 0 to 100
Source text: as §1, §2

crabgrass, Brazilian = assay: Test E preemergence; type: in vivo, Digitaria horizontalis; settings: Brazil, scale 0 to 100
Source text: as §1, §2

velvetleaf = assay: Test E preemergence; type: in vivo, Abutilon theophrasti; settings: scale 0 to 100
Source text: as §1, §2

barnyardgrass = assay: Test E preemergence; type: in vivo, Echinochloa crus-galli; settings: scale 0 to 100
Source text: as §1, §2

beggarticks = assay: Test E preemergence; type: in vivo, Bidens pilosa; settings: scale 0 to 100
Source text: as §1, §2

foxtail, giant = assay: Test E preemergence; type: in vivo, Setaria faberii; settings: scale 0 to 100
Source text: as §1, §2

ryegrass, Italian = assay: Test E preemergence; type: in vivo, Lolium multiflorum; settings: scale 0 to 100
Source text: as §1, §2

soybean [3] = assay: Test E preemergence; type: in vivo, Glycine max; settings: scale 0 to 100
Source text: as §1, §2

surinam grass = assay: Test E preemergence; type: in vivo, Brachiaria decumbens; settings: scale 0 to 100
Source text: as §1, §2

sandbur = assay: Test E postemergence; type: in vivo, Cenchrus echinatus; settings: scale 0 to 100
Source text: as §1, §2

corn = assay: Test E postemergence; type: in vivo, Zea mays; settings: scale 0 to 100
Source text: as §1, §2

soybean [4] = assay: Test E postemergence; type: in vivo, Glycine max; settings: scale 0 to 100
Source text: as §1, §2

arrowleaf sida [5] = assay: Test E postemergence; type: in vivo, Sida rhombifolia; settings: scale 0 to 100
Source text: as §1, §2

panicum, fall [6] = assay: Test E postemergence; type: in vivo, Panicum dichotomiflorum; settings: scale 0 to 100
Source text: as §1, §2

Measured: Plant response rating

CCCc1nc(-c2ccc(F)cc2)nn1Cc1ccnc(C(F)(F)F)c1 [Compound 6, 4-[[3-(4-fluorophenyl)-5-propyl-1H-1,2,4-triazol-1-yl]methyl]-2-(trifluoromethyl)pyridine]
70: arrowleaf sida [2]; 250 g ai/ha | velvetleaf; 250 g ai/ha | beggarticks; 250 g ai/ha | ryegrass, Italian; 125 g ai/ha | soybean [3]; 250 g ai/ha
60: barnyardgrass; 125 g ai/ha | foxtail, giant; 62 g ai/ha
100: panicum, fall [1]; 250 g ai/ha | waterhemp; 62 g ai/ha | waterhemp; 125 g ai/ha | waterhemp; 250 g ai/ha | johnsongrass; 250 g ai/ha | crabgrass, large; 125 g ai/ha | crabgrass, large; 250 g ai/ha | crabgrass, Brazilian; 62 g ai/ha | crabgrass, Brazilian; 125 g ai/ha | crabgrass, Brazilian; 250 g ai/ha | foxtail, giant; 250 g ai/ha
35: panicum, fall [1]; 62 g ai/ha
30: nutsedge, yellow; 125 g ai/ha | morningglory; 125 g ai/ha | arrowleaf sida [2]; 125 g ai/ha | velvetleaf; 31 g ai/ha
75: crabgrass, Brazilian; 16 g ai/ha | barnyardgrass; 250 g ai/ha
0: nutsedge, yellow; 16 g ai/ha | nutsedge, yellow; 31 g ai/ha | arrowleaf sida [2]; 16 g ai/ha | arrowleaf sida [2]; 31 g ai/ha | velvetleaf; 16 g ai/ha | beggarticks; 16 g ai/ha | beggarticks; 31 g ai/ha | beggarticks; 62 g ai/ha | soybean [3]; 16 g ai/ha
20: panicum, fall [1]; 31 g ai/ha | beggarticks; 125 g ai/ha | surinam grass; 16 g ai/ha
80: waterhemp; 31 g ai/ha | johnsongrass; 125 g ai/ha | crabgrass, Brazilian; 31 g ai/ha | ryegrass, Italian; 250 g ai/ha
90: crabgrass, large; 62 g ai/ha
10: morningglory; 31 g ai/ha | morningglory; 62 g ai/ha | arrowleaf sida [2]; 62 g ai/ha | barnyardgrass; 16 g ai/ha | ryegrass, Italian; 16 g ai/ha | soybean [3]; 31 g ai/ha
95: panicum, fall [1]; 125 g ai/ha | foxtail, giant; 125 g ai/ha
40: johnsongrass; 31 g ai/ha | nutsedge, yellow; 250 g ai/ha | velvetleaf; 62 g ai/ha | barnyardgrass; 31 g ai/ha | ryegrass, Italian; 31 g ai/ha | soybean [3]; 62 g ai/ha | surinam grass; 31 g ai/ha | surinam grass; 62 g ai/ha
15: nutsedge, yellow; 62 g ai/ha
50: johnsongrass; 62 g ai/ha | velvetleaf; 125 g ai/ha | barnyardgrass; 62 g ai/ha | foxtail, giant; 16 g ai/ha | ryegrass, Italian; 62 g ai/ha | soybean [3]; 125 g ai/ha | surinam grass; 125 g ai/ha | surinam grass; 250 g ai/ha

CCOc1nc(-c2ccc(F)cc2)nn1Cc1ccnc(C(F)(F)F)c1 [Compound 8, 4-[[5-ethoxy-3-(4-fluorophenyl)-1H-1,2,4-triazol-1-yl]methyl]-2-(trifluoromethyl)pyridine]
20: beggarticks; 62 g ai/ha | beggarticks; 125 g ai/ha
65: johnsongrass; 62 g ai/ha | arrowleaf sida [2]; 62 g ai/ha | ryegrass, Italian; 62 g ai/ha
50: velvetleaf; 62 g ai/ha | soybean [3]; 62 g ai/ha | soybean [3]; 125 g ai/ha | surinam grass; 62 g ai/ha
100: panicum, fall [1]; 62 g ai/ha | panicum, fall [1]; 125 g ai/ha | waterhemp; 62 g ai/ha | waterhemp; 125 g ai/ha | johnsongrass; 125 g ai/ha | crabgrass, large; 62 g ai/ha | crabgrass, large; 125 g ai/ha | morningglory; 125 g ai/ha | crabgrass, Brazilian; 62 g ai/ha | crabgrass, Brazilian; 125 g ai/ha | foxtail, giant; 62 g ai/ha | foxtail, giant; 125 g ai/ha | ryegrass, Italian; 125 g ai/ha
25: nutsedge, yellow; 62 g ai/ha
75: barnyardgrass; 62 g ai/ha | surinam grass; 125 g ai/ha
35: nutsedge, yellow; 125 g ai/ha
98: arrowleaf sida [2]; 125 g ai/ha | velvetleaf; 125 g ai/ha
70: morningglory; 62 g ai/ha
95: barnyardgrass; 125 g ai/ha

COc1nc(-c2ccc(Cl)cc2)nn1Cc1ccnc(C(F)(F)F)c1 [Compound 28]
20: sandbur; 31 g ai/ha | corn; 62 g ai/ha | corn; 125 g ai/ha | panicum, fall [6]; 62 g ai/ha | panicum, fall [6]; 125 g ai/ha | panicum, fall [6]; 250 g ai/ha
30: sandbur; 62 g ai/ha | sandbur; 125 g ai/ha | corn; 250 g ai/ha
70: soybean [4]; 31 g ai/ha | arrowleaf sida [5]; 31 g ai/ha
80: soybean [4]; 250 g ai/ha | arrowleaf sida [5]; 62 g ai/ha | arrowleaf sida [5]; 125 g ai/ha
40: sandbur; 250 g ai/ha
15: corn; 31 g ai/ha | panicum, fall [6]; 31 g ai/ha
95: soybean [4]; 125 g ai/ha
75: soybean [4]; 62 g ai/ha | arrowleaf sida [5]; 250 g ai/ha
